# According to patent US9783527B2, “Indazole ureas and method of use” (AbbVie Inc., priority 2014, dated 2017):
# Molecular target: human Nav1.7 (Homo sapiens (Human), UniProt Q15858)
# Experiment: FRET-based membrane potential assay, recombinant human sodium channel Nav1.7
# Type: cell-based
# Conditions: HEK293 cells stably expressing recombinant human Nav1.7; depolarization with veratridine (EC80) + scorpion venom
# Method in brief: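 IC50 derived by four-parameter Hill fit of percent inhibition of depolarization, measured as peak F440-480/F565-625 ratio over baseline. Stable human Nav1.7 HEK293 cells, dye-loaded with CC2-DMPE and DiSBAC2(3)/VABSC-1 at room temperature, received compound 3 min ahead of veratridine (EC80) plus scorpion venom.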
# Sequence of human Nav1.7 (Q15858 whole entry): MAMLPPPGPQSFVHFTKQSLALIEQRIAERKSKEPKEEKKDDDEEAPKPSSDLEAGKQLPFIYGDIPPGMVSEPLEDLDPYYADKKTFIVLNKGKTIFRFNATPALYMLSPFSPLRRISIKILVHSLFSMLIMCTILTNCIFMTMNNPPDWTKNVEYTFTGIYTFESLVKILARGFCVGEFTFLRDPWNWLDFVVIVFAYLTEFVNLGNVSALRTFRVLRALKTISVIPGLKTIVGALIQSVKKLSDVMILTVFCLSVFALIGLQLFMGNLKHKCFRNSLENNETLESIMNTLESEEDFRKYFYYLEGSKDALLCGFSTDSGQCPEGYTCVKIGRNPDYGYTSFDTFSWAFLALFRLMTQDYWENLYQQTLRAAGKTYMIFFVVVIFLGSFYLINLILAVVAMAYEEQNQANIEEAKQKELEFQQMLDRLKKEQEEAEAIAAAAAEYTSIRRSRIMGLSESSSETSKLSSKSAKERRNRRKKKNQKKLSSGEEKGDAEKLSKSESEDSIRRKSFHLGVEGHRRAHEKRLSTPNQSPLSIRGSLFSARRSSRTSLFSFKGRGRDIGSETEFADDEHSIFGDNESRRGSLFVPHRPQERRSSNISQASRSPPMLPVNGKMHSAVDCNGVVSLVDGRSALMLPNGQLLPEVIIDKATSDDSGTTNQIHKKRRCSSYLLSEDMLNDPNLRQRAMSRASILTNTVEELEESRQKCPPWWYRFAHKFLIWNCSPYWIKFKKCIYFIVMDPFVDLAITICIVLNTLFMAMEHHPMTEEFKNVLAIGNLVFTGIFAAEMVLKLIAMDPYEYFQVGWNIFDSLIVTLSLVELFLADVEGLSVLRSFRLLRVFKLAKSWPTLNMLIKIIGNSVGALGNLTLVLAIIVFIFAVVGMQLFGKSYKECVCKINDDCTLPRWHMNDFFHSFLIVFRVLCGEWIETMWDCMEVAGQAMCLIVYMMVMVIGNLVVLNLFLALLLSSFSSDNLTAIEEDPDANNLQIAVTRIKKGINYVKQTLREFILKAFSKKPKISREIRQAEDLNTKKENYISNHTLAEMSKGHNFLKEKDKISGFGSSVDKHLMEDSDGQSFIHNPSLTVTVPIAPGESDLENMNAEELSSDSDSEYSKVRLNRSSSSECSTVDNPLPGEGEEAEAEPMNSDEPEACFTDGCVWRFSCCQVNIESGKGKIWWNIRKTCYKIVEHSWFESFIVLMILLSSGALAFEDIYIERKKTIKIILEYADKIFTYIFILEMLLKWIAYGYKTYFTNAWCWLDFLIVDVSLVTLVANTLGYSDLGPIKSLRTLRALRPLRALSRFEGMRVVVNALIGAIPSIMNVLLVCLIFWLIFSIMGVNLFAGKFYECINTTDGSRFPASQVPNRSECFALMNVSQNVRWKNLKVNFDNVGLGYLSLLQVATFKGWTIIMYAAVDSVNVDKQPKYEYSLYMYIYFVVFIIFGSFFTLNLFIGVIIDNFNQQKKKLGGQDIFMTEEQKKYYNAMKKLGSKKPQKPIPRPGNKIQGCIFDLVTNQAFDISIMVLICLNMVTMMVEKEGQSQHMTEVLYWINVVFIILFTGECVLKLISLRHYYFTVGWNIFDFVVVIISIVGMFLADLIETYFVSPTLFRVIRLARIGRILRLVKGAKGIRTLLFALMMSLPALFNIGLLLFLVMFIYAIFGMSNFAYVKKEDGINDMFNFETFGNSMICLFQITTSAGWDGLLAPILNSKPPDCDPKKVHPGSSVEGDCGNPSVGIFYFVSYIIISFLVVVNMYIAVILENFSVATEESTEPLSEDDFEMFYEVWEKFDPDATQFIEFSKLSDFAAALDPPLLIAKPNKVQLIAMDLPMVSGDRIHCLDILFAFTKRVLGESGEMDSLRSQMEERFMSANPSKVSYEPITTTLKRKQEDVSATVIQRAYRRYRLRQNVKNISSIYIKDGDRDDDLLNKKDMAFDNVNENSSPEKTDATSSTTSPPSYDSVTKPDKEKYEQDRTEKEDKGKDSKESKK
row,SMILES,IC50 [nM]
1,"Cc1nc(CN2CCN(c3cccc4c3cnn4-c3ccccc3F)C2=O)oc1C [Example 238, 1-[(4,5-dimethyl-1,3-oxazol-2-yl)methyl]-3-[1-(2-fluorophenyl)-1H-indazol-4-yl]imidazolidin-2-one]",586
2,"O=C(CN1CCN(c2cccc3c2cnn3-c2ccccc2F)C1=O)N1CCN2CCCC2C1 (stereo not drawn) [Example 66, 1-[1-(2-fluorophenyl)-1H-indazol-4-yl]-3-[2-(hexahydropyrrolo[1,2-c]pyrazin-2(1H)-yl)-2-oxoethyl]imidazolidin-2-one]",804
3,"CCc1nc(CN2CCN(c3cccc4c3cnn4-c3ccccc3F)C2=O)cs1 [Example 250, 1-[(2-ethyl-1,3-thiazol-4-yl)methyl]-3-[1-(2-fluorophenyl)-1H-indazol-4-yl]imidazolidin-2-one]",1140
4,"CC(C)(C)c1nnc(CN2CCN(c3cccc4c3cnn4-c3ccccc3F)C2=O)o1 [Example 262, 1-[(5-tert-butyl-1,3,4-oxadiazol-2-yl)methyl]-3-[1-(2-fluorophenyl)-1H-indazol-4-yl]imidazolidin-2-one]",2520
5,"O=C1N(Cc2cc(C3CC3)on2)CCN1c1cccc2c1cnn2-c1ccccc1F [Example 252, 1-[(5-cyclopropyl-1,2-oxazol-3-yl)methyl]-3-[1-(2-fluorophenyl)-1H-indazol-4-yl]imidazolidin-2-one]",1760
6,"O=C1N(CCc2ccccc2)CCN1c1cccc2c1cnn2-c1ccccc1F [Example 193, 1-[1-(2-fluorophenyl)-1H-indazol-4-yl]-3-(2-phenylethyl)imidazolidin-2-one]",998
7,"COC[C@H]1CC[C@H](COC)N1C(=O)CN1CCN(c2cccc3c2cnn3-c2ccccc2F)C1=O [Example 65, 1-{2-[(2R,5R)-2,5-bis(methoxymethyl)pyrrolidin-1-yl]-2-oxoethyl}-3-[1-(2-fluorophenyl)-1H-indazol-4-yl]imidazolidin-2-one]",678
8,"O=C1C(N2CCN(c3cccc4c3cnn4-c3ccccc3F)C2=O)CCN1Cc1ccccc1 (stereo not drawn) [Example 232, 1-(1-benzyl-2-oxopyrrolidin-3-yl)-3-[1-(2-fluorophenyl)-1H-indazol-4-yl]imidazolidin-2-one]",1150
9,"CC1COCC(C)N1C(=O)CN1CCN(c2cccc3c2cnn3-c2ccccc2F)C1=O (stereo not drawn) [Example 101, 1-[2-(3,5-dimethylmorpholin-4-yl)-2-oxoethyl]-3-[1-(2-fluorophenyl)-1H-indazol-4-yl]imidazolidin-2-one]",3520
10,"CO[C@H](CC(C)C)CN1CCN(c2cccc3c2cnn3-c2ccccc2F)C1=O [Example 214, 1-[1-(2-fluorophenyl)-1H-indazol-4-yl]-3-[(2R)-2-methoxy-4-methylpentyl]imidazolidin-2-one]",2020
11,"CC(C)[C@H]1CCCCN1C(=O)CN1CCN(c2cccc3c2cnn3-c2ccccc2F)C1=O [Example 124, 1-[1-(2-fluorophenyl)-1H-indazol-4-yl]-3-{2-[(2R)-2-isopropylpiperidin-1-yl]-2-oxoethyl}imidazolidin-2-one]",1200
12,"O=C1CC(C(=O)N2CCN(c3cccc4c3cnn4-c3ccccc3F)C2=O)C1 [Example 61, 1-[1-(2-fluorophenyl)-1H-indazol-4-yl]-3-[(3-oxocyclobutyl)carbonyl]imidazolidin-2-one]",2240
13,"CN(CC1CCOCC1)C(=O)CN1CCN(c2cccc3c2cnn3-c2ccccc2F)C1=O [Example 68, 2-{3-[1-(2-fluorophenyl)-1H-indazol-4-yl]-2-oxoimidazolidin-1-yl}-N-methyl-N-(tetrahydro-2H-pyran-4-ylmethyl)acetamide]",3570
14,"C[C@H]1CCN(C(=O)CN2CCN(c3cccc4c3cnn4-c3ccccc3F)C2=O)C1 [Example 90, 1-[1-(2-fluorophenyl)-1H-indazol-4-yl]-3-{2-[(3S)-3-methylpyrrolidin-1-yl]-2-oxoethyl}imidazolidin-2-one]",1720
15,"CC(C)(C)C(=O)N1CCN(c2cccc3c2cnn3-c2ccccc2F)C1=O [Example 60, 1-(2,2-dimethylpropanoyl)-3-[1-(2-fluorophenyl)-1H-indazol-4-yl]imidazolidin-2-one]",1990
16,"CC(C)(C)c1cnc(CN2CCN(c3cccc4c3cnn4-c3ccccc3F)C2=O)o1 [Example 233, 1-[(5-tert-butyl-1,3-oxazol-2-yl)methyl]-3-[1-(2-fluorophenyl)-1H-indazol-4-yl]imidazolidin-2-one]",1020
17,"O=C1N(c2ccc(C3CC3)o2)CCN1c1cccc2c1cnn2-c1ccccc1F [Example 192, 1-(5-cyclopropyl-2-furyl)-3-[1-(2-fluorophenyl)-1H-indazol-4-yl]imidazolidin-2-one]",1360
18,"CC(C)C[C@@H](O)CN1CCN(c2cccc3c2cnn3-c2ccccc2F)C1=O [Example 155, 1-[1-(2-fluorophenyl)-1H-indazol-4-yl]-3-[(2R)-2-hydroxy-4-methylpentyl]imidazolidin-2-one]",1880

row,SMILES,IC50 [nM]
1,"COC1C2CCC1CN(C(=O)CN1CCN(c3cccc4c3cnn4-c3ccccc3F)C1=O)C2 (stereo not drawn) [Example 109, 1-[1-(2-fluorophenyl)-1H-indazol-4-yl]-3-[2-(8-methoxy-3-azabicyclo[3.2.1]oct-3-yl)-2-oxoethyl]imidazolidin-2-one]",1020
2,"COC(=O)[C@H]1CCCN1C(=O)CN1CCN(c2cccc3c2cnn3-c2ccccc2F)C1=O [Example 119, methyl 1-({3-[1-(2-fluorophenyl)-1H-indazol-4-yl]-2-oxoimidazolidin-1-yl}acetyl)-D-prolinate]",1760
3,"O=C1N(c2cccc3c2cnn3-c2ccccc2F)CCN1[C@@H]1CCCC[C@H]1O [Example 273, 1-[1-(2-fluorophenyl)-1H-indazol-4-yl]-3-[(1R,2R)-2-hydroxycyclohexyl]imidazolidin-2-one]",4860
4,"O=C1N(Cc2ncco2)CCN1c1cccc2c1cnn2-c1ccc(C(F)(F)F)cc1 [Example 235, 1-(1,3-oxazol-2-ylmethyl)-3-{1-[4-(trifluoromethyl)phenyl]-1H-indazol-4-yl}imidazolidin-2-one]",1130
5,"CC1(CN2CCN(c3cccc4c3cnn4-c3ccccc3F)C2=O)COC1 [Example 213, 1-[1-(2-fluorophenyl)-1H-indazol-4-yl]-3-[(3-methyloxetan-3-yl)methyl]imidazolidin-2-one]",3650
6,"C=CCCC(C)(O)CN1CCN(c2cccc3c2cnn3-c2ccccc2F)C1=O (stereo not drawn) [Example 146, 1-[1-(2-fluorophenyl)-1H-indazol-4-yl]-3-(2-hydroxy-2-methylhex-5-en-1-yl)imidazolidin-2-one]",3120
7,"CC(C)(C)C(=O)CN1CCN(c2cccc3c2cnn3-c2ccccc2F)C1=O [Example 161, 1-(3,3-dimethyl-2-oxobutyl)-3-[1-(2-fluorophenyl)-1H-indazol-4-yl]imidazolidin-2-one]",1400
8,"C[C@@H]1COCCN1C(=O)CN1CCN(c2cccc3c2cnn3-c2ccccc2F)C1=O [Example 113, 1-[1-(2-fluorophenyl)-1H-indazol-4-yl]-3-{2-[(3R)-3-methylmorpholin-4-yl]-2-oxoethyl}imidazolidin-2-one]",2270
9,"CCOCC1(F)CCN(C(=O)CN2CCN(c3cccc4c3cnn4-c3ccccc3F)C2=O)C1 (stereo not drawn) [Example 98, 1-{2-[3-(ethoxymethyl)-3-fluoropyrrolidin-1-yl]-2-oxoethyl}-3-[1-(2-fluorophenyl)-1H-indazol-4-yl]imidazolidin-2-one]",1440
10,"Cc1cnc(CN2CCN(c3cccc4c3cnn4-c3ccccc3F)C2=O)cn1 [Example 257, 1-[1-(2-fluorophenyl)-1H-indazol-4-yl]-3-[(5-methylpyrazin-2-yl)methyl]imidazolidin-2-one]",3090
11,"O=C1N(CC(=O)N2CCCC2CN2CCOCC2)CCN1c1cccc2c1cnn2-c1ccccc1F (stereo not drawn) [Example 71, 1-[1-(2-fluorophenyl)-1H-indazol-4-yl]-3-{2-[2-(morpholin-4-ylmethyl)pyrrolidin-1-yl]-2-oxoethyl}imidazolidin-2-one]",2340
12,"O=C1N(CC2CCCC2)CCN1c1cccc2c1cnn2-c1ccccc1F [Example 181, 1-(cyclopentylmethyl)-3-[1-(2-fluorophenyl)-1H-indazol-4-yl]imidazolidin-2-one]",6270
13,"C[C@@H]1CCCN1C(=O)CN1CCN(c2cccc3c2cnn3-c2ccccc2F)C1=O [Example 118, 1-[1-(2-fluorophenyl)-1H-indazol-4-yl]-3-{2-[(2R)-2-methylpyrrolidin-1-yl]-2-oxoethyl}imidazolidin-2-one]",1100
14,"O=C(C1CCC1)C(O)N1CCN(c2cccc3c2cnn3-c2ccccc2F)C1=O (stereo not drawn) [Example 166, 1-(2-cyclobutyl-1-hydroxy-2-oxoethyl)-3-[1-(2-fluorophenyl)-1H-indazol-4-yl]imidazolidin-2-one]",435
15,"CC(C)CC(=O)CN1CCCN(c2cccc3c2cnn3-c2ccccc2F)C1=O [Example 188, 1-[1-(2-fluorophenyl)-1H-indazol-4-yl]-3-(4-methyl-2-oxopentyl)tetrahydropyrimidin-2(1H)-one]",1660
16,"C[C@@H](NC(=O)CN1CCN(c2cccc3c2cnn3-c2ccccc2F)C1=O)c1ccccc1 [Example 176, 2-{3-[1-(2-fluorophenyl)-1H-indazol-4-yl]-2-oxoimidazolidin-1-yl}-N-[(1R)-1-phenylethyl]acetamide]",983
17,"O=C(OC1CCCCC1)N1CCN(c2cccc3c2cnn3-c2ccccc2F)C1=O [Example 131, cyclohexyl 3-[1-(2-fluorophenyl)-1H-indazol-4-yl]-2-oxoimidazolidine-1-carboxylate]",286
18,"O=C1N(CC(=O)N2CCC[C@@H]2C(F)(F)F)CCN1c1cccc2c1cnn2-c1ccccc1F [Example 171, 1-[1-(2-fluorophenyl)-1H-indazol-4-yl]-3-{2-oxo-2-[(2R)-2-(trifluoromethyl)pyrrolidin-1-yl]ethyl}imidazolidin-2-one]",285
